Assay results published in paper PMC11684029, “Discovery of VU6024578/BI02982816: An mGlu1 Positive Allosteric Modulator with Efficacy in Preclinical Antipsychotic and Cognition Models” (Journal of Medicinal Chemistry, 2024).
“Also recorded” adds a separate entry of the source. Where two headings read alike, the source gives them in different places.

Key:
human mGlu1 = target: T1, human mGlu1 (Homo sapiens, UniProt Q13255); assay: mGlu1 calcium mobilization (triple-add) PAM assay; assay type: cell-based
T1 construct: expressed in transfected cells; pcDNA5/TO)
T1 sequence (Q13255 19-1194): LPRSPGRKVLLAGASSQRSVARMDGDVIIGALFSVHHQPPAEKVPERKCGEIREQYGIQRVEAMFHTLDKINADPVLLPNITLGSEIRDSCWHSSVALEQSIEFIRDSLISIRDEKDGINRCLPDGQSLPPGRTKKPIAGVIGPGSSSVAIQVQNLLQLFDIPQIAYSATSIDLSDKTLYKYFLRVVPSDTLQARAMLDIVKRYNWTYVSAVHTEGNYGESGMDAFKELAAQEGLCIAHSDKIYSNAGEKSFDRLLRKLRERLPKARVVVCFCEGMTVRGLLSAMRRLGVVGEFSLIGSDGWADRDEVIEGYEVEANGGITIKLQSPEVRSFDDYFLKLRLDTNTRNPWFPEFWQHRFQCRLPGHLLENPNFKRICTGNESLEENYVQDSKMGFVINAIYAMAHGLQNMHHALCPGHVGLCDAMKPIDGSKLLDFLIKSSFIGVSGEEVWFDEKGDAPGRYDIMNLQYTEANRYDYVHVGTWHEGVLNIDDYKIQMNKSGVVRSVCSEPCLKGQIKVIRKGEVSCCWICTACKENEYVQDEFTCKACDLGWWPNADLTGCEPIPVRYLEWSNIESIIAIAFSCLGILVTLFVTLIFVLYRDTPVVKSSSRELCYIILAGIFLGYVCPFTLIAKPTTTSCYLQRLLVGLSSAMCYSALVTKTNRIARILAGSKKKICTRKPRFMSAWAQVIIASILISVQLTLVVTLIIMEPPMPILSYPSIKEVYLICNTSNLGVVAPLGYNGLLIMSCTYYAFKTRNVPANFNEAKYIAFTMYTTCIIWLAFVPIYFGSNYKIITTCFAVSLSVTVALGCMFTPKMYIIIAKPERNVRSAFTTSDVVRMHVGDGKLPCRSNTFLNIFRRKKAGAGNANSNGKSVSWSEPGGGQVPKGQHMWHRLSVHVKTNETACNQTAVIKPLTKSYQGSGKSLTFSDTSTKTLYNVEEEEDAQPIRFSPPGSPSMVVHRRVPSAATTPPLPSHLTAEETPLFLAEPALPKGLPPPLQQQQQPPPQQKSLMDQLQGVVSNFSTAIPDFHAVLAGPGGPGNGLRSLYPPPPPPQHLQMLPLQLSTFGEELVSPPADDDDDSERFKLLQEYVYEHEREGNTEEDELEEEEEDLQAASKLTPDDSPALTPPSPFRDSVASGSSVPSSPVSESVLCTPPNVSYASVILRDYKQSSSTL
Method: Tetracycline-inducible human mGlu1 WT-T-REx-293 cells (Wu et al, Science 2014) were cultured at 37 °C in Dulbecco’s Modified Eagle Medium (DMEM) growth medium containing 10% Tet-tested FBS, 2 mM L-glutamine, 20 mM HEPES, 0.1 mM nonessential amino acids, 1 mM sodium pyruvate, antibiotic/antimycotic, 100 μg/mL hygromycin and 5 μg/mL blasticidin in the presence of 5% CO2. […] The mutant stable cell lines were generated in the same manner as the WT as previously described and cultured in the growth medium described above.
To determine the potency of mGlu1 PAMs in calcium assays, Ca flux was measured as previously described in ACS Chem. Bio. 2014, 9, 2334–2346. Briefly, the day before the assay, human mGlu1 WT-T-REx-293 cells were plated in black-walled, clear-bottomed, poly-D-lysine coated 96-well plates at 80,000 cells/100 μL assay medium (DMEM supplemented with 10% dialyzed FBS, 20 mM HEPES, and 1 mM sodium pyruvate) containing 50 ng/mL of tetracycline to induce mGlu1 expression. The next day, media was removed and the cells were incubated with 50 μL of 1.15 μM Fluo-4 AM dye solution prepared in assay buffer (buffer (Hank’s balanced salt solution, 20 mM HEPES, and 2.5 mM probenecid) for 45 min at 37 °C, the dye was removed and replaced with 45 μL of assay buffer. Then, calcium flux was measured using Flexstation II (Molecular Devices, Sunnyvale, CA). Compounds serially diluted at half log concentrations in DMSO were further diluted in assay buffer. The compounds or DMSO vehicle were added to cells and incubated for 2.5 min and an EC20 concentration of glutamate was added and incubated for 1 min. An ECmax concentration of glutamate was also added to cells that were incubated with DMSO vehicle to accurately calculate the EC20 calcium response. Data were normalized by subtracting the basal florescent peak before EC20 agonist addition from the maximal peak elicited by EC20 agonist and PAMs. Using GraphPad Prism 5.0, the concentration response curves were generated and the potencies of the mGlu1 PAMs were determined.

5-HT2B [1] = target: T2, 5-HT2B (Homo sapiens, UniProt P41595); assay: follow-up functional assay; assay type: biochemical
T2 sequence (P41595 whole entry): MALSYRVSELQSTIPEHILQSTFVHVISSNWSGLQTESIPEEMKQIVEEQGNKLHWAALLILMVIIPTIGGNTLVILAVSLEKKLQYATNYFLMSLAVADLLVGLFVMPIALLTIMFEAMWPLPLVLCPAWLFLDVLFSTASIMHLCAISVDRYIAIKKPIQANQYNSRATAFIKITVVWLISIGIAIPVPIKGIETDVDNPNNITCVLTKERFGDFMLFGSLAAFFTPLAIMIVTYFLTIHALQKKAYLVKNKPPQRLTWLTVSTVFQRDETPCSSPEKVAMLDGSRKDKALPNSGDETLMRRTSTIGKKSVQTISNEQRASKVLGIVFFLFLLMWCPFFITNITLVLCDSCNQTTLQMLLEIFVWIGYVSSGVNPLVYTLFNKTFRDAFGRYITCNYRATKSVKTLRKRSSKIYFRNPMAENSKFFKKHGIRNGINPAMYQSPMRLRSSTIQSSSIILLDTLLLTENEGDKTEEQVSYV

rats [2] = assay: MK-801 induced disruption of novel object recognition; assay type: in vivo; settings: rat, p.o.
Method: Based on our previous work with the mGlu1 PAM 4,[6]−[9],[14]−[19] we first evaluated the ability of 19d to reverse MK-801 disruptions of novel object recognition (NOR) in rats (Figure 6).
Figure 6 Rat MK-801 induced disruption of novel object recognition and reversal by VU6024578 (19d). MK-801 (0.5 mg/kg IP) induced a robust disruption of NOR, which was dose-dependently reversed by oral administration (10% tween 80) of 19d.
The animals are habituated to the novel object arenas for 1 day prior to testing. This is accomplished by placing the animal in the arena with no objects for 10 min and then placed back into the home cage. The arena is then cleaned with 70% ethanol in between animals. The day of the test the animals are habituated to the dosing room for 2 h. The animals were administered VU6024578 (1–10 mg/kg p.o.) or vehicle (10% Tween 80) and were placed back into their homecage for 60 min. The animals were then injected with MK-801 (0.075 mg/kg 1 mL/kg s.c.) and placed back in the homecage for 30 min. […] The activity of the animals are recorded and the time spent exploring each of the objects is scored by a blinded observer. Recognition index is determined by subtracting […] divided by total time spent exploring.

satellite PK for rat AHL = assay type: in vivo; settings: 2.5-h end of study; for concentration at 2.5 h: brain, oral, read-out: free brain concentration
Method: Here, administration of 0.75 mg/kg IP of amphetamine induced a robust hyperlocomotive state in rats (>1200 beam breaks), which was dose-dependently reversed by oral administration of 19d. […] Considering the longer time point for exposure and the results, mGlu1 has sufficient target coverage and PK/PD is established for this paradigm.[24]

rats [3] = assay: adverse events in rats; assay type: in vivo, rat; settings: much higher exposures than in dog
PDGF = assay: Eurofins radioligand binding panel; design: species or system mouse; settings: agonist radioligand
Text: (§1) Table S1. Eurofins Lead Profiling Screen Data
(§2) This is a radioligand binding panel of 80 targets including GPCRs, ion channels, transporters and nuclear hormones. Biochemical assay results are presented as the percent inhibition of specific […]
(§3) Results showing an inhibition or stimulation higher than 50% are considered to represent significant effect and are highlighted

sst (non-selective) = assay: Eurofins radioligand binding panel; design: species or system mouse; settings: agonist radioligand
Text: as §1, §2, §3

5-HT1A = target: T3, 5-HT1A (Homo sapiens, UniProt P08908); assay: Eurofins radioligand binding panel; settings: agonist radioligand
T3 construct: Eurofins
T3 sequence (P08908 whole entry): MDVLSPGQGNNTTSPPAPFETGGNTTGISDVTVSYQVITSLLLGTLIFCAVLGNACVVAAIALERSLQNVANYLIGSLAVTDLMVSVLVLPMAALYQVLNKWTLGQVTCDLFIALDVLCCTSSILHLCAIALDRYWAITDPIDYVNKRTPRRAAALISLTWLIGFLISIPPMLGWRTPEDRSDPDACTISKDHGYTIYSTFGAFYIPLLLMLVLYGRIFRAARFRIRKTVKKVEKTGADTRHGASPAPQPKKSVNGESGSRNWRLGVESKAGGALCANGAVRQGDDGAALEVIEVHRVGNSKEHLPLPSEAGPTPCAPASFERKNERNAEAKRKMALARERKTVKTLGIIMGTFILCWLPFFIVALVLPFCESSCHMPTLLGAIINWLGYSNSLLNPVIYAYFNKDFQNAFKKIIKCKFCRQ
Text: as §1, §2
(§4) Results showing an inhibition or stimulation higher than 50% are considered to represent significant effect and are highlighted […]
(§5) Target / Protein Species % Inhibition at 10
(§6) Adenosine A1 (antagonist radioligand) human 8
(§7) Adenosine A2A (agonist radioligand) human -1
(§8) Adenosine A3 (agonist radioligand) human 23
(§9) Adrenergic alpha 1 (non-selective) (antagonist radioligand) rat 19
(§10) Adrenergic alpha 2 (non-selective) (antagonist radioligand) rat 1
(§11) Adrenergic beta 1 (agonist radioligand) human 1
(§12) Adrenergic beta 2 (antagonist radioligand) human -1
(§13) AT1 (antagonist radioligand) human -1
(§14) AT2 (agonist radioligand) human 2 […]
(§15) BB (non-selective) (agonist radioligand) rat -20
(§16) B2 (agonist radioligand) human 7
(§17) CGRP (agonist radioligand) human 1
(§18) CB1 (agonist radioligand) human 0
(§19) CCK1 (CCKA) (agonist radioligand) human 7
(§20) CCK2 (CCKB) (agonist radioligand) human -4

EP4 = target: T4, EP4 (Homo sapiens, UniProt P35408); assay: Eurofins radioligand binding panel; settings: agonist radioligand
T4 construct: Eurofins
T4 sequence (P35408 whole entry): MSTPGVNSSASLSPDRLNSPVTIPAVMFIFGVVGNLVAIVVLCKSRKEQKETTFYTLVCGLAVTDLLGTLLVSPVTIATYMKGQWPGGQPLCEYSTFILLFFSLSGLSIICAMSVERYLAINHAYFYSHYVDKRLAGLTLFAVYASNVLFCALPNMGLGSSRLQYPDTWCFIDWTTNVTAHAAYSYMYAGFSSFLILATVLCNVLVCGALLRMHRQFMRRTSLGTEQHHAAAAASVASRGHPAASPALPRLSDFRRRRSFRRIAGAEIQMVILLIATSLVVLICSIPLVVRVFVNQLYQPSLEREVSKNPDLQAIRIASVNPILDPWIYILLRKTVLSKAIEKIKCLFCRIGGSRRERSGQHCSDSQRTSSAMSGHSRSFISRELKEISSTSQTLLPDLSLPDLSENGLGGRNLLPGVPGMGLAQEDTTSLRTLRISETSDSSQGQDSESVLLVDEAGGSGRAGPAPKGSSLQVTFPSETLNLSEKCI
Text: as §1, §2, §4, §5, §6, §7, §8, §9, §10, §11, §12, §13, §14, §15, §16, §17, §18, §19, §20

5-HT2B [4] = target: T2, 5-HT2B; assay: Eurofins radioligand binding panel; design: Eurofins; settings: agonist radioligand
Text: as §1, §2, §3

[5] = PAM, calcium flux, EC20 glutamate

Cn1nc(-c2ccnn2C)cc1CNC(=O)c1cc(-c2ccco2)ccc1Cl [Compound 19d, 2-Chloro-N-((1,2′-dimethyl-1H,2’H-[3,3′-bipyrazol]-5-yl)methyl)-5-(furan-2-yl)benzamide]
EC50 (human mGlu1; [5]): 54 nM | human mGlu1 Glumax (human mGlu1; [5]): 83% | human mGlu1 pEC50 (human mGlu1; n = 77): 7.31 ± 0.02 | receptor desensitization (antagonist/EC80 window) (human mGlu1; triple-add protocol): only slight mGlu1 desensitization; also recorded: little receptor desensitization | intrinsic agonist activity (compound alone window) (human mGlu1; triple-add protocol, up to 30 μM): no agonism; also recorded: no intrinsic agonist activity | functional activity at 5-HT2B (5-HT2B [1]): inactive | minimum effective dose (MED), MK-801 disrupted NOR (rats [2]): 10 mg/kg | free brain concentration over in vitro EC50 (satellite PK for rat AHL; 3 mg/kg): ~0.6 fold | free brain concentration over in vitro EC50 (satellite PK for rat AHL; 10 mg/kg): ~1.2 fold | concentration at 2.5 h (satellite PK for rat AHL; 3 mg/kg): 32 nM | concentration at 2.5 h (satellite PK for rat AHL; 10 mg/kg): 67 nM | adverse events (AEs) in rats (rats [3]): no AEs | % Inhibition at 10 µM (PDGF): -2% | % Inhibition at 10 µM (sst (non-selective)): -12% | inhibition at 10 µM (5-HT1A): 51% | inhibition at 10 µM (EP4): 62% | inhibition at 10 µM (5-HT2B [4]): 67%
